These results are taken from patent US20030032791A1, “Novel melanocortin-4 receptor sequences and screening assays to identify compounds useful in regulating animal appetite and metabolic rate” (priority 2000, published 2003).

Usually IC50 stands for the point on the concentration scale where inhibition reaches its midpoint. Higher therefore signals lower potency. Usually EC50 stands for the concentration at which the effect is half-maximal.

Read-outs that look alike come from different tables or passages of the source. Marks after values point to notes of the source that are not given here. Residues, ends and D or L forms follow the SMILES beside them.

In test [1] the target is canine MC4R (canine). The test can be described thus: cell-based or functional assay.
Test [2] has as its target T1, hMC3R (Homo sapiens, UniProt P41968).
Target sequence in this assay (P41968 whole entry): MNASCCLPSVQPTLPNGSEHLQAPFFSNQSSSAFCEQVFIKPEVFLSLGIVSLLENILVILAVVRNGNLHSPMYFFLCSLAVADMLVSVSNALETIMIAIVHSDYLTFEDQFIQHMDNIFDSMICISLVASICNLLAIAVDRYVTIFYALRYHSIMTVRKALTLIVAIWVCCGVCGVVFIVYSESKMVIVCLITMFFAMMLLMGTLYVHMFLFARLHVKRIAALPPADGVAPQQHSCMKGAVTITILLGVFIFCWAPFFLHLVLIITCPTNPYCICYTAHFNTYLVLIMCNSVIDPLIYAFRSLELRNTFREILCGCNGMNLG
The target of test [3] is T2, hMC4R (Homo sapiens, UniProt P32245).
Target sequence in this assay (P32245 whole entry): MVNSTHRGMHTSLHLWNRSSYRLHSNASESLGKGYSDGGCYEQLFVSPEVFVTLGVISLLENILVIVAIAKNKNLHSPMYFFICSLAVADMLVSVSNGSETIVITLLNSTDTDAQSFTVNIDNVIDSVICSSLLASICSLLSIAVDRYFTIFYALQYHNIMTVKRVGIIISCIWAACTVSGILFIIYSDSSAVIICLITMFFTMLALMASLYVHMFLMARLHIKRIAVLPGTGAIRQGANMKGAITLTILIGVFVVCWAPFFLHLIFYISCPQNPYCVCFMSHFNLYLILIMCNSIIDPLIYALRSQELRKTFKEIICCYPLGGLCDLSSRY
The subject of test [4] is cMC4R. The test can be described thus: cMC4R.
In test [5] the target is T2, hMC4R. The test can be described thus: hMC4R. The arrangement: expressed in transfected cells; host or cells: HEK293.
Target sequence in this assay (P32245 whole entry, looked up): as the sequence (P32245 whole entry) above
In test [6] the target is T1, hMC3R. The test can be described thus: hMC3R. The arrangement: expressed in transfected cells; host or cells: HEK293.
Target sequence in this assay (P41968 whole entry, looked up): as the sequence (P41968 whole entry) above
The target in test [7] is T2, hMC4R. This is another data set of the same source.
Target sequence in this assay (P32245 whole entry): as the sequence (P32245 whole entry) above
Test [8] deals with T1, hMC3R. This is another data set of the same source.
Target sequence in this assay (P41968 whole entry): as the sequence (P41968 whole entry) above
In test [9] the target is canine MC4R (canine).
For test [10], the system named is cMC4R. Kind of test: FLIPR calcium release assay in HEK293a/cMC4R/Gα15, Gα16 cells. Particulars: read-out: EC50, agonist stimulated calcium release; HEK293a/cMC4R/Gα15, Gα16, Fluo-4.
A further test addresses canine MC4R (Canis lupus familiaris, UniProt A0A2Z6BEC9). Particulars: 1 pM α-MSH.
For test [11], the system named is Obese Beagle Dogs. Kind of test: Indirect calorimetry following ICV injection in lateral ventricle cannulated dogs. The format is in vivo, dog. Particulars: NDP-MSH 75 mol. The source says: (§1) Healthy, (1-3 years of age) male and female beagles (Marshall Farms, North Rose N.Y.) weighing 11-15 kg were employed as test subjects. The animals were surgically implanted with lateral ventricle cannulas using standard techniques. Wilsson-Rahmberg et al., 1998, J. Investigative Surgery, 11:207-214. Cannula placement and patency were confirmed with fluoroscopy. The dogs were housed individually in standard caging meeting or exceeding the USDA regulations (U.S. Department of Agriculture, Animal Welfare, Final Rules. 9 C.F.R. Parts 1-3,1995).
Each subject received a single 50 μl injection in one lateral ventricle (ICV injection) of one of 3 solutions: 30-100 nmol of the non-specific melanocortin (MC) receptor agonist [N1 e^4, D-Phe^7]-α-MSH (hereinafter “NDP-MSH,” Bachem Bioscience Inc., King of Prussia Pa.), 1-2 nmol of the MC3/4 receptor antagonist SHU-9119 (Bachem Bioscience Inc., King of Prussia, Pa.) or vehicle which consisted of artificial cerebrospinal fluid (hereinafter “aCSF,” Harvard Apparatus, Holliston, Mass.). NDP-MSH and SHU-9119 were received as a dry powder and were reconstituted with aCSF to achieve an appropriate concentration for a ^50 μl injection. Following ICV injection, resulting effects on food intake or metabolic rate were determined.
The studies consisted of one group of animals containing five dogs. In study 1, dogs received either NDP-MSH or aCSF on day 0 in a cross-over design with two dogs receiving NDP-MSH first and three dogs receiving aCSF first. Resulting effects on food intake were determined. In study 2, dogs received either SHU-9119 or aCSF on day 0 in a cross-over design with two dogs receiving SHU-9119 first and three dogs receiving aCSF first. Resulting effects on food intake were determined. In study 3, dogs received either NDP-MSH or aCSF on day 0 in a cross-over design with three dogs receiving NDP-MSH first and two dogs receiving aCSF first. Resulting effects on metabolic rate were determined. In study 4, dogs received either SHU-9119 or aCSF on day 0 in a cross-over design with three dogs receiving SHU-9119 first and two dogs receiving aCSF first. Resulting effects on metabolic rate were determined. Each test animal was permitted ad libitum access to water and IAMS […]® (The IAMS Company, Dayton Ohio) dry food each day during the study unless otherwise noted.
Reduction or increase in metabolic rate was measured by standard indirect calorimetry using an open circuit calorimeter (OXYMAX DELUXE@, Columbus Instruments, Columbus Ohio). Dogs were fasted for approximately 18 hours prior to ICV injection. Calorimetry sessions were initiated approximately 2 hours after ICV injection and lasted for 60-90 minutes.

For test [12], the system named is Obese Beagle Dogs. The test can be described thus: 24 hr food intake following ICV injection in lateral ventricle cannulated dogs. The format is in vivo, dog. Particulars: NDP-MSH 100 nmol.
Source text: as §1
Each subject received a single 50 μl injection in one lateral ventricle (ICV injection) of one of 3 solutions: 30-100 nmol of the non-specific melanocortin (MC) receptor agonist [N1 e^4, D-Phe^7]-α-MSH (hereinafter “NDP-MSH,” Bachem Bioscience Inc., King of Prussia Pa.), 1-2 nmol of the MC3/4 receptor antagonist SHU-9119 (Bachem Bioscience Inc., King of Prussia, Pa.) or vehicle which consisted of artificial cerebrospinal fluid (hereinafter “aCSF,” Harvard Apparatus, Holliston, Mass.). […] Following ICV injection, resulting effects on food intake or metabolic rate were determined.
The studies consisted of one group of animals containing five dogs. […] Resulting effects on food intake were determined. […] Resulting effects on food intake were determined. […] Resulting effects on metabolic rate were determined. […] Resulting effects on metabolic rate were determined. […]

The mark [13] stands for this setting: ICV injection, SHU 9119 2 nmol, about 2 hours after injection, fasted dogs.
Setting [14] is: versus aCSF control, SHU 9119 2 nmol ICV.

Chain of canine MC4R (canine) (Q0Z8I9 other isoform, or with tags, fused parts or gaps): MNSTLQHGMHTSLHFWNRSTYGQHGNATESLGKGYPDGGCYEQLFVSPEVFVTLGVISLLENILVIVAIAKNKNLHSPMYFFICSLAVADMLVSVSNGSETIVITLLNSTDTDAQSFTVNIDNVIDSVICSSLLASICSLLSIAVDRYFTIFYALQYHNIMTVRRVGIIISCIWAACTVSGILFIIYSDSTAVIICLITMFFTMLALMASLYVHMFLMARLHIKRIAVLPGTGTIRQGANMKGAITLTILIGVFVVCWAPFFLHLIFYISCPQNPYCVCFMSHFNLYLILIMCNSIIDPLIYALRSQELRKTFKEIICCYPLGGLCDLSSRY
Chain of canine MC4R (A0A2Z6BEC9 1-332): as the sequence (Q0Z8I9 other isoform, or with tags, fused parts or gaps) above

In the case of “α-MSH (from UniProt P01189 138-150) (peptide)”, in the test with canine MC4R (canine) [1], the EC50, agonist stimulated calcium release (FLIPR, HEK293a/cMC4R/Gα15, Gα16 cells) was determined as 55 nM; the cAMP, fold over negative control cells is 10 fold; the concentration of cAMP in α-MSH treated cells (1.5×10^6 cells/ml) stood at 13.8 pmol/mL.

Regarding SHU9119 (peptide), the IC50, antagonist inhibition of calcium release in the presence of 20 nM NDP-MSH agonist (FLIPR) with canine MC4R (canine) [1] stood at 2 nM. Further, the IC50 with hMC3R [2] is 0.188 nM; with hMC4R [3], 0.0116 nM.

In the case of `N=C(N)NCCC[C@@H]1NC(=O)[C@@H](Cc2ccc3ccccc3c2)NC(=O)[C@H](Cc2c[nH]cn2)NC(=O)[C@H](CCC(=O)O)NC(=O)CCSSC[C@@H](C(=O)N2CCC[C@H]2C(=O)N2CCC[C@H]2C(=O)N[C@@H](CCCCN)C(=O)N[C@@H](CC(=O)O)C(N)=O)NC(=O)CNC(=O)[C@H](Cc2c[nH]c3ccccc23)NC1=O` [JKC363] (HELM PEPTIDE1{[O=C(CCS[*:3])[*:2]].E.H.[O=C([C@@H](Cc1ccc2ccccc2c1)N[*:1])[*:2]].R.W.G.C.P.P.K.D.[am]}$PEPTIDE1,PEPTIDE1,1:R3-8:R3$$$V2.0; C-terminus assumed), the IC50 was 0.971 nM in the test with cMC4R [4]; 1.31 nM on hMC4R [5]; 15.1 nM against hMC3R [6]; 2.11 nM at hMC4R [7]; 22.7 nM against hMC3R [8].

With JKC363 (peptide), the IC50 in the test with canine MC4R (canine) [9] stood at 1.27 nM; with hMC3R [2], 22.8 nM.

Regarding MTII (peptide), the EC50, agonist stimulated calcium release (FLIPR, HEK293a/cMC4R/Gα15, Gα16 cells) with canine MC4R (canine) [1] turned out to be 10 nM. This molecule also returned an IC50 with canine MC4R (canine) [9] of 0.877 nM.

On to α-MSH, for which the concentration for a half-maximal effect (EC50) in the test with cMC4R [10] is 55 nM. Besides, the “concentration of cAMP” value on canine MC4R (30 minutes, most concentrated batch of cells (1.5×10^6 cells/ml)) was determined as 13.82 pmol/mL. The “cAMP levels over background” value on canine MC4R (cells at each concentration (0.5, 1.0, 1.5×10^6 cells/ml)) is “significant increase”. For the same molecule, the “difference in cAMP versus negative control cells” value on canine MC4R (most concentrated batch of cells) is “almost ten-fold”.

On to SHU9119, for which, in the test with Obese Beagle Dogs [11] (setting [13]), the “Heat Produced, Average” value worked out at 13 kcal/h and the “VO2, Average” value was found to be 3.6 mL/min/kg. Besides, in the test on Obese Beagle Dogs [11] (setting [14]), the “Heat Produced, % Change” value is on record as −37* % and the “VO2, % Change” value is listed as −38* %. Besides, in the test with Obese Beagle Dogs [12] (ICV injection, SHU 9119 2 nmol), the “24 hr Food Intake, Average” value was found to be 366 g. In the test with Obese Beagle Dogs [12] (setting [14]), the “24 hr Food Intake, % Change” value is recorded as “+132* %”.

For the molecule MTII, in the test on cMC4R [10], the EC50 is 10 nM.
